# From patent EP2931723B1, “NEW BICYCLIC COMPOUNDS AND THEIR USE AS ANTIBACTERIAL AGENTS AND -LACTAMASE INHIBITORS” (Fedora Pharmaceuticals Inc., priority 2012, dated 2014)
# Experiments:
# Assay in all cases: MIC, antibacterial and synergistic activity
# Format in all cases: cell-based
# [1] = tested on: E. coli ATCC 25922; details: E. coli ATCC 25922 (Wt)
# [2] = tested on: E. cloacae JMI 36; details: E. cloacae JMI 36 (P99)
# [3] = tested on: E. coli JMI 10767; details: E. coli JMI 10767 (Wt)
# [4] = tested on: E. coli JMI 2665
# Protocol: In the Tables 10 - 12, compounds herein disclosed were tested in combination with various antibiotics against metallo β-lactamase producing bacteria. Table 3: Synergy of the inhibitor Ex. 1 (4 µg/mL) in combination with antibiotics
# [5] = tested on: E. coli JMI 2671
# Procedure, shortened: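 Against bacteria that produce metallo β-lactamase, the inhibitor was added at a constant 4 µg/mL. Partner antibiotics were then titrated to obtain MICs.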
# [6] = tested on: E.coli JMI 4103; details: E.coli JMI 4103 (KPC-2, Tem-1, CMY-Type)
# [7] = tested on: K. pneumo JMI 4088; details: K. pneumo JMI 4088 (KPC-3 (Cpase)); substance alone
# [8] = tested on: K. pneumo JMI 4106; details: K. pneumo JMI 4106 (KPC-3, TEM-1, SHV-12, SHV-141)
# [9] = tested on: K. pneumo JMI 2674; details: K. pneumo JMI 2674 (CTX-M15 (ESBL)); substance alone
# [10] = tested on: K.pneumo JMI 4109; details: K.pneumo JMI 4109 (SHV-1, SHV-12); substance alone
# [11] = tested on: E. coli JMI 11103
# [12] = tested on: P. aerug JMI 2686; details: P. aerug JMI 2686 (KPC-2 (Cpase)); substance alone
# [13] = tested on: K. pneumo JMI 2673; details: K. pneumo JMI 2673 (CTX-M14 (ESBL)); substance alone
# [14] = tested on: K. pneumo JMI 2681; details: K. pneumo JMI 2681 (Oxa-48 (Cpase))
# [15] = tested on: A. baumanii JMI 2659; details: A. baumanii JMI 2659 (Ges-14 (Cpase))
# [16] = tested on: E. coli JMI 10768; details: E. coli JMI 10768 (CTX-M15 (Weak ESBL)); Meropenem + inhibitor at 4 µg/mL
# [17] = tested on: E. coli JMI 2692; details: E. coli JMI 2692 (NDM-1, TEM-1, CTX-M-15)
# Protocol: (§1) In the Tables 10 - 12, compounds herein disclosed were tested in combination with various antibiotics against metallo β-lactamase producing bacteria.
# [18] = tested on: K. pneumo JMI 2697; details: K. pneumo JMI 2697 (IMP-4 (Cpase))
# Protocol: as §1
# [19] = tested on: K. pneumo JMI 2693; details: K. pneumo JMI 2693 (NDM-1 (Cpase))
# Protocol: as §1
# [20] = tested on: P. aerug JMI 149; details: P. aerug JMI 149 (Bla+++D+)
# [21] = tested on: E. coli JMI 10770; details: Escherichia coli, JMI10770; E. coli JMI 10770 (CTX-M15 (Hyper ESBL)); substance alone
# [22] = tested on: E. coli JMI 4080
# [23] = Aztreonam + inhibitor at 4 µg/mL
# [24] = Ceftazidime + inhibitor at 4 µg/mL
# [25] = Meropenem + inhibitor at 4 µg/mL
structure (smiles),measurement,setting,value
"CCC(=O)NNC(=O)[C@@H]1CC[C@@H]2CN1C(=O)N2OS(=O)(=O)O [Ex. 8, (2S,5R)-7-oxo-N'-propanoyl-6-(sulfooxy)-1,6-diazabicyclo[3.2.1]octane-2-carbohydrazide]",MIC Aztreonam + inhibitor,[1]; [23],≤0.0625 µg/mL
same,MIC Ceftazidime + inhibitor,[1]; [24],≤0.25 µg/mL
same,MIC Meropenem + inhibitor,[1]; [25],≤0.0312 µg/mL
same,MIC,"[1]; Escherichia coli, ATCC25922, substance alone",16 µg/mL
same,MIC Aztreonam + inhibitor,[2]; [23],0.125 µg/mL
same,MIC Ceftazidime + inhibitor,[2]; [24],0.5 µg/mL
same,MIC Meropenem + inhibitor,[2]; [25],0.25 µg/mL
same,MIC,"[2]; Enterobacter cloacae, JMI36, substance alone, read-out: MIC",> 16 µg/mL
same,MIC Meropenem + inhibitor,[3]; [25],≤0.0312 µg/mL
same,MIC,"[3]; Escherichia coli, JMI10767, substance alone",> 16 µg/mL
same,MIC Aztreonam + inhibitor,"[4]; E. coli JMI 2665 (CMY-2 (Plasmid Cpase)), Aztreonam + inhibitor at 4 µg/mL",≤0.062 µg/mL
same,MIC Ceftazidime + inhibitor,"[4]; E. coli JMI 2665 (CMY-2 (Plasmid Cpase)), Ceftazidime + inhibitor at 4 µg/mL",≤0.25 µg/mL
same,MIC,"[4]; Escherichia coli, JMI2665",4 µg/mL
same,MIC Aztreonam + inhibitor,"[5]; E. coli JMI 2671 (VIM-19 (Cpase)), Aztreonam + inhibitor at 4 µg/mL",≤0.062 µg/mL
same,MIC Ceftazidime + inhibitor,"[5]; E. coli JMI 2671 (VIM-19 (Cpase)), Ceftazidime + inhibitor at 4 µg/mL",0.5 µg/mL
same,MIC Meropenem + inhibitor,"[5]; E. coli JMI 2671 (VIM-19 (Cpase)), Meropenem + inhibitor at 4 µg/mL",1 µg/mL
same,MIC,"[5]; Escherichia coli, JMI2671, E. coli JMI 2671 (VIM-19 (Cpase)), substance alone",> 16 µg/mL
same,MIC Aztreonam + inhibitor,[6]; [23],≤0.062 µg/mL
same,MIC Ceftazidime + inhibitor,[6]; [24],≤0.25 µg/mL
same,MIC Meropenem + inhibitor,[6]; [25],≤0.0312 µg/mL
same,MIC,"[6]; Escherichia coli, JMI4103, substance alone",4 µg/mL
same,MIC,[7],> 16 µg/mL
same,MIC Aztreonam + inhibitor,[8]; [23],≤0.062 µg/mL
same,MIC Ceftazidime + inhibitor,[8]; [24],≤0.25 µg/mL
same,MIC Meropenem + inhibitor,[8]; [25],≤0.0312 µg/mL
same,MIC,"[8]; substance alone, read-out: MIC",> 16 µg/mL
same,MIC,[9],> 16 µg/mL
same,MIC,[10],4 µg/mL
same,MIC Aztreonam + inhibitor,"[11]; E. coli JMI 11103 (CTX-M15 (Intermediate ESBL)), Aztreonam + inhibitor at 4 µg/mL",≤0.062 µg/mL
same,MIC Ceftazidime + inhibitor,"[11]; E. coli JMI 11103 (CTX-M15 (Intermediate ESBL)), Ceftazidime + inhibitor at 4 µg/mL",≤0.25 µg/mL
same,MIC Meropenem + inhibitor,"[11]; E. coli JMI 11103 (CTX-M15 (Intermediate ESBL)), Meropenem + inhibitor at 4 µg/mL",≤0.0312 µg/mL
same,MIC,"[11]; Escherichia coli, JMI11103, E. coli JMI 11103 (CTX-M15 (Intermediate ESBL)), substance alone",> 16 µg/mL
same,MIC,[12],> 16 µg/mL
same,MIC,[13],> 16 µg/mL
same,MIC Aztreonam + inhibitor,[14]; [23],0.125 µg/mL
same,MIC Ceftazidime + inhibitor,[14]; [24],≤0.25 µg/mL
same,MIC Meropenem + inhibitor,[14]; [25],0.5 µg/mL
same,MIC,"[14]; substance alone, read-out: MIC",> 16 µg/mL
same,MIC Aztreonam + inhibitor,[15]; [23],>4 µg/mL
same,MIC Ceftazidime + inhibitor,[15]; [24],>16 µg/mL
same,MIC Meropenem + inhibitor,[15]; [25],>2 µg/mL
same,MIC,"[15]; Acinetobacter baumannii, JMI2659, substance alone, read-out: MIC",> 16 µg/mL
same,MIC Meropenem + inhibitor,[16],≤0.0312 µg/mL
same,MIC Aztreonam + inhibitor,[17]; [23],≤0.062 µg/mL
same,MIC Ceftazidime + inhibitor,[17]; [24],≤0.25 µg/mL
same,MIC Meropenem + inhibitor,[17]; [25],2 µg/mL
same,MIC,"[17]; Escherichia coli, JMI2692, substance alone, read-out: MIC",4 µg/mL
same,MIC Aztreonam + inhibitor,[18]; [23],≤0.062 µg/mL
same,MIC Ceftazidime + inhibitor,[18]; [24],16 µg/mL
same,MIC Meropenem + inhibitor,[18]; [25],2 µg/mL
same,MIC,[18]; substance alone,> 16 µg/mL
same,MIC Aztreonam + inhibitor,[19]; [23],2 µg/mL
same,MIC Ceftazidime + inhibitor,[19]; [24],8 µg/mL
same,MIC Meropenem + inhibitor,[19]; [25],0.125 µg/mL
same,MIC,[19]; substance alone,> 16 µg/mL
same,MIC Aztreonam + inhibitor,[20]; [23],>4 µg/mL
same,MIC Ceftazidime + inhibitor,[20]; [24],>16 µg/mL
same,MIC Meropenem + inhibitor,[20]; [25],0.5 µg/mL
same,MIC,"[20]; substance alone, read-out: MIC",> 16 µg/mL
same,MIC,[21],> 16 µg/mL
same,MIC Aztreonam + inhibitor,"[22]; E. coli JMI 4080 (Tem-10), Aztreonam + inhibitor at 4 µg/mL",≤0.062 µg/mL
same,MIC Ceftazidime + inhibitor,"[22]; E. coli JMI 4080 (Tem-10), Ceftazidime + inhibitor at 4 µg/mL",≤0.25 µg/mL
same,MIC Meropenem + inhibitor,"[22]; E. coli JMI 4080 (Tem-10), Meropenem + inhibitor at 4 µg/mL",≤0.0312 µg/mL
same,MIC,"[22]; Escherichia coli, JMI4080, E. coli JMI 4080 (Tem-10), substance alone",4 µg/mL
